Numbered stars: 1 amine (or outer) side, 2 acyl side, 3 side chain; on linkers, the order of the positions; unused ones are H or OH. Bridge positions count the residues as written; N and C are the ends. Square brackets hold non-standard residues; d marks the D form. Peptide text beside a SMILES is read from it. * marks the point of attachment. Nicotinoyl(6-OMe) = COc1ccc(C(=O)*)cn1; 2Thenoyl(5-Cl) = O=C(c1ccc(Cl)s1)*; Pyrazinecarbonyl = O=C(c1cnccn1)*; Phenoxyacetyl = O=C(COc1ccccc1)*; Cysteamide = C(CS[*:3])N[*:1]; X3 = O=C(Cc1c[nH]c2ccccc12)*; Orn = NCCC[C@H](N)C(=O)O; Dap = NC[CH](N)C(=O)O; Bz = O=C(c1ccccc1)*; βAla = NCCC(=O)O; Mpa = O=C(O)CCS
Molecular target: T1, thrombin (Homo sapiens, UniProt P00734)
T1 construct: consists of two polypeptide chains of 36 (light chain) and 259 amino acid
Assay: Thrombin inhibition screen of crude macrocycle reactions (residual thrombin activity, fluorogenic substrate Z-Gly-Gly-Arg-AMC)
Type: biochemical
Settings: 10 µM macrocycle concentration; for % thrombin activity, Original screen / % thrombin activity, Repeat screen: macrocycles containing acid 14, crude reaction; for % thrombin activity, Repeat screen: replicate reaction and screen; for percent residual thrombin activity: crude reactions, Library 1a-l, scaffold AA1-AA2-AA3 combined with 1-16 or '-'
In short: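 Residual activity was measured as the AMC release rate after adding 50 μM Z-Gly-Gly-Arg-AMC. This followed a 10-min room-temperature preincubation of 2 nM thrombin with 10 μM single macrocycles in pH 7.4 Tris buffer (0.6% DMSO). Percent inhibition was taken against the mean slope of DMSO controls.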

Row | Structure (SMILES) | % thrombin activity, Original screen [%] | % thrombin activity, Repeat screen [%] | percent residual thrombin activity [%]
1 | CC[C@H](C)[C@@H]1NC(=O)CCSSCCNC(=O)[C@H](CNC(=O)c2ccc(Cl)s2)NC(=O)[C@@H]2CCCN2C1=O [X I B1 D3] ([Mpa]IP[Dap](2Thenoyl(5-Cl))-Cysteamide; disulfide 1-C) | 91.3 | 90.1 | –
2 | O=C(Cc1c[nH]c2ccccc12)NCCC[C@@H]1NC(=O)CCSSCCNC(=O)c2ccc(cc2)CNC(=O)[C@H](Cc2c[nH]c3ccccc23)NC1=O [D2-W-B3/12] | – | – | 112.189
3 | O=C1CCNC(=O)[C@@H](Cc2ccc(O)cc2)NC(=O)C2(CCN(C(=O)c3ccc(Cl)s3)CC2)NC(=O)CCSSCCN1 [X D6 y B2] | 102.0 | 104.5 | –
4 | CC1NC(=O)CCSSCCNC(=O)C2CCCN2C(=O)C(CNC(=O)c2ccc(Cl)s2)NC1=O (stereo not drawn) [X a D4 B1] ([Mpa]A[Dap](2Thenoyl(5-Cl))P-Cysteamide; disulfide 1-C; configuration not given here) | 108.4 | 109.8 | –
5 | CC[C@H](C)[C@@H]1NC(=O)CCNC(=O)[C@H](CCCNC(=O)c2c[nH]c(=O)[nH]c2=O)NC(=O)CCSSCCNC1=O [D2-B2-I/11] | – | – | 113.677
6 | C[C@H]1NC(=O)CCSSCCNC(=O)[C@H](CCCCNC(=O)c2c[nH]c(=O)[nH]c2=O)NC(=O)CCNC1=O [a-B2-D1/11] | – | – | 107.663
7 | NC(=O)CC[C@@H]1NC(=O)[C@H](CCCCNC(=O)Cc2c[nH]c3ccccc23)NC(=O)[C@@H]2CCCN2C(=O)CCSSCCNC1=O [B1-D1-Q/12] ([Mpa]PK(X3)Q-Cysteamide; disulfide 1-C) | – | – | 106.242
8 | O=C(NCCCC[C@@H]1NC(=O)[C@@H](Cc2c[nH]c3ccccc23)NC(=O)[C@H]2CCCN(C2)C(=O)CCSSCCNC1=O)c1ccccc1 [B4-W-D1/1] | – | – | 101.061
9 | Cc1nnsc1C(=O)NCCCC[C@@H]1NC(=O)[C@H](Cc2ccc(O)cc2)NC(=O)CCSSCCNC(=O)[C@H]2CCCN(C2)C1=O [Y-D1-B4/15] | – | – | 104.272
10 | COc1ccc(C(=O)NCCC[C@@H]2NC(=O)C3(CC3)CNC(=O)CCSSCCNC(=O)[C@H](Cc3c[nH]c4ccccc34)NC2=O)cn1 [B6-D2-W/10] | – | – | 93.1158
11 | O=C1CCSSCCNC(=O)[C@H](Cc2cnc[nH]2)NC(=O)c2cccc(c2)CNC(=O)[C@H](CCCNC(=O)c2ccco2)N1 [D2-B5-H/16] | – | – | 101.891
12 | NC(=O)CCC1NC(=O)C(CCCCNC(=O)c2cnccn2)NC(=O)CCSSCCNC(=O)C2CCCN2C1=O (stereo not drawn) [D1-Q-B1/2] ([Mpa]K(Pyrazinecarbonyl)QP-Cysteamide; disulfide 1-C; configuration not given here) | – | – | 104.356
13 | CC(C)[C@H]1NC(=O)c2cccc(c2)CNC(=O)[C@H](CCCNC(=O)c2c[nH]c(=O)[nH]c2=O)NC(=O)CCSSCCNC1=O [D2-B5-v/11] | – | – | 108.83
14 | CC(C)CC(=O)NCCC[C@@H]1NC(=O)CCSSCCNC(=O)[C@H](Cc2ccc(O)cc2)NC(=O)c2cccc(c2)CNC1=O [D2-B5-Y/8] | – | – | 100.592
15 | O=C1CCSSCCNC(=O)[C@H](Cc2ccccc2)NC(=O)[C@H](CNC(=O)c2ccc(Cl)s2)NC(=O)C2(CC2)CN1 [X B6 D3 F] | 70.7 | 68.6 | –
16 | NCCCC[C@@H]1NC(=O)CCSSCCNC(=O)[C@H]2CCCN(C2)C(=O)[C@H](Cc2ccccc2)NC1=O [D1-F-B4/-] | – | – | 110.104
17 | CC[C@H](C)[C@@H]1NC(=O)[C@H](CNC(=O)c2ccc(Cl)s2)NC(=O)CCSSCCNC(=O)c2ccc(cc2)CNC1=O [X D3 I B3] | 87.6 | 88.8 | –
18 | CC(C)CC(=O)NCCCC[C@@H]1NC(=O)[C@H](Cc2ccccc2)NC(=O)CCSSCCNC(=O)[C@H]2CCCN(C2)C1=O [F-D1-B4/8] | – | – | 108.059
19 | O=C1CCNC(=O)[C@H](Cc2c[nH]cn2)NC(=O)CCSSCCNC(=O)[C@H](CCCNC(=O)c2ccc(Cl)s2)N1 [X H B2 D2] | 94.6 | 91.5 | –
20 | C[C@H]1NC(=O)[C@H](CCCNC(=O)c2ccccc2)NC(=O)CCSSCCNC(=O)CCNC1=O [D2-a-B2/1] ([Mpa][Orn](Bz)[dA][βAla]-Cysteamide; disulfide 1-C) | – | – | 113.72
21 | CC(C)CC(=O)NCCC[C@@H]1NC(=O)CCSSCCNC(=O)[C@H](CCC(N)=O)NC(=O)c2ccc(cc2)CNC1=O [D2-B3-Q/8] | – | – | 112.114
22 | O=C(COc1ccccc1)NCCCC[C@@H]1NC(=O)[C@H](Cc2ccccc2)NC(=O)CCSSCCNC(=O)[C@H]2CCCN(C2)C1=O [F-D1-B4/13] | – | – | 109.797
23 | O=C1CCSSCCNC(=O)[C@@H](CNC(=O)c2ccc(Cl)s2)NC(=O)[C@H]2CCCN(C2)C(=O)[C@H](Cc2c[nH]c3ccccc23)N1 [X W B4 D4] | 108.0 | 112.0 | –

Row | Structure (SMILES) | % thrombin activity, Original screen [%] | % thrombin activity, Repeat screen [%] | percent residual thrombin activity [%]
24 | O=C1CCSSCCNC(=O)C(Cc2ccccc2)NC(=O)C2CC(NC(=O)c3ccc(Cl)s3)CN2C(=O)c2cccc(c2)CN1 (stereo not drawn) [X B5 D5 f] | 91.3 | 95.8 | –
25 | COc1ccc(C(=O)NCCC[C@@H]2NC(=O)[C@H](CC(C)C)NC(=O)CCNC(=O)CCSSCCNC2=O)cn1 [B2-L-D2/10] | – | – | 110.801
26 | O=C1CCSSCCNC(=O)[C@H](CCCCNC(=O)c2ccc(Cl)s2)NC(=O)[C@@H](Cc2ccc(O)cc2)NC(=O)c2ccc(cc2)CN1 [X B3 y D1] | 106.6 | 108.9 | –
27 | O=C(COc1ccccc1)NCCC[C@@H]1NC(=O)c2ccc(cc2)CNC(=O)[C@H](CO)NC(=O)CCSSCCNC1=O [S-B3-D2/13] | – | – | 119.049
28 | COc1ccc(C(=O)NCCCC[C@@H]2NC(=O)[C@H](C(C)C)NC(=O)CCSSCCNC(=O)[C@@H]3CCCN3C2=O)cn1 [V-D1-B1/10] ([Mpa]VK(Nicotinoyl(6-OMe))P-Cysteamide; disulfide 1-C) | – | – | 107.385
29 | CC1NC(=O)CCSSCCNC(=O)C(CCCCNC(=O)c2ccc(Cl)s2)NC(=O)C2CCCN2C1=O (stereo not drawn) [X a B1 D1] ([Mpa]APK(2Thenoyl(5-Cl))-Cysteamide; disulfide 1-C; configuration not given here) | 106.8 | 115.5 | –
30 | O=C1CCSSCCNC(=O)[C@H](Cc2c[nH]c3ccccc23)NC(=O)[C@H](CCCNC(=O)COc2ccccc2)NC(=O)C2(CC2)CN1 [B6-D2-W/13] | – | – | 95.6589
31 | CC(C)CC(=O)NCCC[C@@H]1NC(=O)CCNC(=O)[C@H](Cc2cnc[nH]2)NC(=O)CCSSCCNC1=O [H-B2-D2/8] | – | – | 108.958
32 | CC(C)C[C@@H]1NC(=O)[C@H](CCCNC(=O)c2c[nH]c(=O)cn2)NC(=O)C2(CC2)CNC(=O)CCSSCCNC1=O [B6-D2-L/9] | – | – | 109.823
33 | O=C1CCSSCCNC(=O)[C@H](Cc2c[nH]c3ccccc23)NC(=O)[C@H](CCCNC(=O)c2ccccc2)NC(=O)C2(CC2)CN1 [B6-D2-W/1] | – | – | 97.8863
34 | CC(C)[C@H]1NC(=O)[C@H](CCCCNC(=O)c2ccc(Cl)s2)NC(=O)[C@@H]2CCCN2C(=O)CCSSCCNC1=O [X B1 D1 v] ([Mpa]PK(2Thenoyl(5-Cl))[dV]-Cysteamide; disulfide 1-C) | 108.1 | 109.9 | –
35 | CC(C)[C@H]1NC(=O)[C@H](CCCCNC(=O)COc2ccccc2)NC(=O)[C@@H]2CCCN2C(=O)CCSSCCNC1=O [B1-D1-v/13] ([Mpa]PK(Phenoxyacetyl)[dV]-Cysteamide; disulfide 1-C) | – | – | 123.844
36 | O=C1CCSSCCNC(=O)[C@@H](Cc2ccc(O)cc2)NC(=O)CCNC(=O)[C@H](CCCCNC(=O)c2ccco2)N1 [D1-B2-y/16] | – | – | 114.281
37 | NC(=O)CC[C@@H]1NC(=O)c2cccc(c2)CNC(=O)CCSSCCNC(=O)[C@H](CNC(=O)c2ccc(Cl)s2)NC1=O [X B5 Q D3] | 95.3 | 96.2 | –
38 | C[C@H]1NC(=O)CCNC(=O)CCSSCCNC(=O)C2(CCN(C(=O)c3ccc(Cl)s3)CC2)NC1=O [X B2 a D6] | 96.5 | 92.7 | –
39 | O=C1CCSSCCNC(=O)C2(CC2)CNC(=O)C2(CCN(C(=O)c3ccc(Cl)s3)CC2)NC(=O)[C@@H](Cc2c[nH]c3ccccc23)N1 [X w D6 B6] | 89.3 | 97.3 | –
40 | NCCCC[C@@H]1NC(=O)[C@@H](Cc2c[nH]c3ccccc23)NC(=O)[C@H]2CCCN(C2)C(=O)CCSSCCNC1=O [B4-W-D1/-] | – | – | 98.9418
41 | C[C@H]1NC(=O)CCSSCCNC(=O)[C@H](CCCCN)NC(=O)CCNC1=O [a-B2-D1/-] | – | – | 105.008
42 | CC(C)C1NC(=O)C(CCCCNC(=O)c2cnccn2)NC(=O)C2CCCN2C(=O)CCSSCCNC1=O (stereo not drawn) [B1-D1-v/2] ([Mpa]PK(Pyrazinecarbonyl)V-Cysteamide; disulfide 1-C; configuration not given here) | – | – | 115.134
43 | O=C(COc1ccccc1)NCCCC[C@@H]1NC(=O)CCNC(=O)[C@@H](CO)NC(=O)CCSSCCNC1=O [s-B2-D1/13] | – | – | 112.63
44 | CCC(C)C1NC(=O)C(CNC(=O)c2ccc(Cl)s2)NC(=O)C2CCCN(C2)C(=O)CCSSCCNC1=O (stereo not drawn) [X B4 D3 I] | 64.0 | 61.8 | –
45 | O=C(NCCCC[C@@H]1NC(=O)[C@@H](Cc2c[nH]c3ccccc23)NC(=O)[C@H]2CCCN(C2)C(=O)CCSSCCNC1=O)c1ccc(Cl)s1 [B4-W-D1/14] | – | – | 84.8525

Source: publication PMC9250534, “Synthesis and direct assay of large macrocycle diversities by combinatorial late-stage modification at picomole scale” (Nature Communications, 2022)
